# Experimental data taken from patent publication US12070454B1, “Anesthetic nerve block and method” (PFOF LLC, priority 2022, dated 2024).
# Values joined by “and” are separate entries in the source; they are usually repeats but may differ in a detail not shown here. Equal values may be shown once.
# Assays:
# [1] = cited from earlier work
# [2] = humans; cited from earlier work
# [3] = Precipitation of local anesthetics with increasing pH (NaOH) or corticosteroids; type: physicochemical; settings: alkaline solution
# [4] = type: physicochemical; settings: for drug mass remaining in solution: 0.375 %; for drug mass precipitated: equal volumes of 8.4% NaHCO3 and 0.75% anesthetic solution, in vitro
# Source text: Because of their elevated pKa's, ALALA drugs will form a crystalline precipitate 82 in an alkaline environment, both intra-axonally and extra-axonally (at the nodes of Ranvier 20 in A-delta fibers and generally around the axon in C-fibers). […] It is anticipated levo-bupivacaine will react similarly to levo-ropivacaine at 96.5% conversion to precipitate and crystallization when this drug becomes available.
# NaHCO3 in Solution 1, when mixed with bupivacaine, levo-bupivacaine, or ropivacaine of Solution 2, will cause these drugs to immediately precipitate into crystals in this alkaline solution.
# As discovered in our laboratory, 8.4% NaHCO3, when combined in vitro with bupivacaine or ropivacaine, results in precipitates of 93.5% and 96.5% respectively of the parent ALALA drug. […] Controlling the pH of the final combination of all these drugs and bases more efficiently controls the percentage of ALALA converted to precipitate and crystals and thereby the duration of the resulting nerve block.
# peripheral nerve [5] = settings: cited from earlier work; for extension of standard peripheral nerve block: dexmedetomidine and clonidine, along with corticosteroids; for duration of peripheral nerve block, local anesthetic alone: no adjuvant or steroid; for life of peripheral nerve blocks and tissue infiltrates with adjuvants: with epinephrine, corticosteroids, α2-agonists
# [6] = cited from earlier work; for pH at which precipitates began to form: combined with NaOH
# [7] = Test-tube combination of levobupivacaine with NaHCO3 versus molar prediction; type: physicochemical
# Source text: In a test-tube with one mole of ropivacaine or levobupivacaine reacting with one mole of NaHCO3, a much higher percentage of ropivacaine or levobupivacaine is converted to the ALALA-bicarbonate precipitate than with racemic bupivacaine. Testing with levobupivacaine with NaHCO3 it was established that, levobupivacaine combines with NaHCO3 much more readily than molar predictions indicated. Where molar quantities predicted a 57.7% combination, an 83.9% combination occurred. Where another molar quantity predicted an 86.5% combination, a 94.0% combining of levobupivacaine and NaHCO3 occurred. Thus levo-enantiomers of the ALALA drugs are the preferred forms to be used to create these ALALA-bicarbonate precipitates.
# axolemma or node = tested on: axolemma or node
# Procedure: It is this small amount of bupivacaine within the axolemma/node that results, primarily, in continuing neural blockade for periods of 120 hours or more.
# peripheral nerve [8] = type: in vivo, human
# Source text: The mass of ALALA drug precipitated around the peripheral nerve or infiltrated tissue causes the intraneural metabolic mechanism transforming unionized to ionized ALALA drug to get overwhelmed. Thus, the normal transformation to ionized ALALA drug gets delayed to the point it takes 5 days or longer for all the ALALA drug to be metabolized and the block to wear off.
# target nerve = assay: ALALA-carbonate nerve block by injection of Solution 1 and Solution 2; type: in vivo, human; settings: ALALA-carbonate precipitate in and around the nerve
# Source text: As shown in FIGS. 17-23, the establishment of a 5-day peripheral nerve block involves the injection of two separate and sequential solutions to form the ALALA-compound precipitate and crystals in vivo around the nerves for specific nerve blocks. These solutions form the ALALA-compound precipitates and crystals. As the two solutions must be kept separate until injection over the specific nerve is accomplished, the solutions may then react to form the ALALA-compound precipitate and crystals in vivo. This separation of solutions by two different means: • 1. The sequential injection of two separate solutions through a single needle (FIGS. 17-19 and 22). • 2. The simultaneous injection of both solutions through a bifurcated needle where mixing occurs only at the needle tip(s) opposite the target nerve (FIGS. 20 and 21). These alkaline solutions are: • 1. […] Epinephrine 86 is present at a concentration of ˜3 mcg/ml, primarily as a standard vascular marker producing mild tachycardia if leakage into the vascular system occurs. When Solution 1 is given, a pulse-oximeter or EKG rhythm strip must be run to confirm no tachycardia for 2 minutes to ensure Solution 1 has no leakage into the vascular system with a resulting tachycardia greater than 15% above baseline pulse. […] Solution 2 is injected only if no increase impulse rate greater than 15% above baseline is determined within 2 minutes. • 3. […]
drug mass remaining in solution [4],drug mass precipitated [4],SMILES,extension of standard peripheral nerve block (peripheral nerve [5]),"duration of peripheral nerve block, local anesthetic alone (peripheral nerve [5])",life of peripheral nerve blocks and tissue infiltrates with adjuvants (peripheral nerve [5]),pH at which precipitates began to form [6],other results
3.50%,96.5%,"CCCN1CCCC[C@H]1C(=O)Nc1c(C)cccc1C [ropivacaine, (S)-1-propyl-N-(2,6-dimethylphenyl)piperidine-2-carboxamide]",~50%,~12 h and 16 h,~24 h,6.9 pH,
7.47%,93.53% and 93.5% and 92.53%,"CCCCN1CCCCC1C(=O)Nc1c(C)cccc1C (racemic) [bupivacaine, (RS)-1-butyl-N-(2,6-dimethylphenyl)piperidine-2-carboxamide]",~50%,~12 h and 16 h,~24 h,7.7 pH,"fraction penetrating the axolemma or node before precipitation (axolemma or node): approximately 11.9%; duration of block achieved (peripheral nerve [8]; 225 mg bupivacaine dose, single volunteer): 5 days; depot as percentage of the dose injected (peripheral nerve [8]; human, in vivo): 7.163%; duration of neural blockade / analgesia (target nerve): ≥ 120 h"

# Continued, compound first:
SMILES,drug mass remaining in solution [4],drug mass precipitated [4],extension of standard peripheral nerve block (peripheral nerve [5]),"duration of peripheral nerve block, local anesthetic alone (peripheral nerve [5])",life of peripheral nerve blocks and tissue infiltrates with adjuvants (peripheral nerve [5]),pH at which precipitates began to form [6],other results
CCCCNc1ccc(C(=O)OCCN(C)C)cc1 [tetracaine],,,,,,,pKa relative to bupivacaine [1]: higher than bupivacaine; dose at which anaphylactic reactions are known [2]: ≤ 10 mg
CCN(CC)CC(=O)Nc1c(C)cccc1C [lidocaine],,,,,,,pH at which lidocaine precipitates [3]: ~11.5 pH
CC1(C)O[C@@H]2C[C@H]3[C@@H]4CCC5=CC(=O)C=C[C@]5(C)[C@@]4(F)[C@@H](O)C[C@]3(C)[C@]2(C(=O)CO)O1 [Triamcinolone],,,,,,,precipitate effect when combined with the ALALA drugs ([6]; Hwang et al.): no precipitate-effects
"CCCCN1CCCC[C@H]1C(=O)Nc1c(C)cccc1C [levobupivacaine, (S)-1-butyl-N-(2,6-dimethylphenyl)-2-piperidinecarboxamide]",,,,~12 h,~24 h,,combining of levobupivacaine and NaHCO3 that occurred ([7]; where another molar quantity predicted an 86.5% combination): 94.0%; combination of levobupivacaine and NaHCO3 that occurred ([7]; where molar quantities predicted a 57.7% combination): 83.9%
